Where no end group is shown, it is not given here.
Test system: sheep erythrocytes
Experiment: Hemolysis assay: decrease in absorbance
Type: cell-based
Settings: grouped as hemolytic (yes) or non-hemolytic (no)

Row | Molecule | Hemolytic
1 | CC[C@H](C)[C@H](NC(=O)[C@H](Cc1c[nH]c2ccccc12)NC(=O)[C@H](CCCCN)NC(=O)[C@@H](NC(=O)[C@H](CC(C)C)NC(=O)[C@H](CCCCN)NC(=O)CNC(=O)[C@@H](NC(=O)[C@@H](NC(=O)[C@H](CO)NC(=O)[C@@H](NC(=O)[C@@H](NC(=O)[C@H](CCCCN)NC(=O)[C@H](CCC(N)=O)NC(=O)[C@H](C)NC(=O)[C@H](CCSC)NC=O)[C@@H](C)CC)[C@@H](C)CC)[C@@H](C)O)[C@@H](C)CC)C(C)C)C(=O)N[C@H](C(=O)N[C@@H](CCCCN)C(=O)N[C@H](C(=O)N[C@H](C(=O)N[C@@H](CC(N)=O)C(=O)N[C@@H](CCCCN)C(=O)N[C@@H](Cc1ccccc1)C(=O)N[C@H](C(=O)N[C@@H](CCCCN)C(=O)N[C@@H](CCCCN)C(=O)O)[C@@H](C)O)C(C)C)[C@@H](C)O)[C@@H](C)CC (racemic) [DL-1] | yes
2 | CC(C)C[C@H](NC=O)C(=O)N[C@@H](C)C(=O)N[C@@H](C)C(=O)N[C@@H](CC(=O)O)C(=O)N[C@@H](CC(C)C)C(=O)N[C@@H](CC(C)C)C(=O)N[C@@H](C)C(=O)N[C@@H](C)C(=O)N[C@@H](CC(C)C)C(=O)NCC(=O)N[C@@H](CC(=O)O)C(=O)N[C@@H](CC(C)C)C(=O)N[C@@H](C)C(=O)N[C@@H](CCCCN)C(=O)N[C@@H](Cc1c[nH]c2ccccc12)C(=O)N[C@@H](CC(C)C)C(=O)N[C@@H](CC(C)C)C(=O)N[C@@H](CC(=O)O)C(=O)N[C@@H](C)C(=O)N[C@@H](CC(C)C)C(=O)N[C@@H](C)C(=O)N[C@@H](CCCCN)C(=O)N[C@@H](C)C(=O)N[C@@H](C)C(=O)N[C@@H](CCCCN)C(=O)N[C@@H](CCCCN)C(=O)O (racemic) [DL-2a] | yes
3 | CC[C@H](C)[C@H](NC(=O)[C@H](CCCCN)NC(=O)[C@H](CCCCN)NC(=O)[C@H](C)NC(=O)[C@H](CC(C)C)NC(=O)[C@H](C)NC(=O)[C@H](C)NC(=O)[C@H](CC(C)C)NC(=O)[C@H](C)NC(=O)[C@H](CCCCN)NC(=O)[C@H](CC(C)C)NC(=O)[C@H](CC(N)=O)NC(=O)[C@@H](NC(=O)[C@H](CCCCN)NC(=O)CNC(=O)[C@H](CC(C)C)NC(=O)[C@H](CC(C)C)NC(=O)[C@H](Cc1c[nH]c2ccccc12)NC(=O)CNC(=O)[C@H](C)N)[C@@H](C)CC)C(=O)N[C@@H](CC(C)C)C(N)=O [TP10W] | yes
4 | CC[C@H](C)[C@H](NC(=O)[C@H](Cc1c[nH]c2ccccc12)NC(=O)[C@H](CCCCN)NC(=O)[C@@H](NC(=O)[C@H](CC(C)C)NC(=O)[C@H](CC(=O)O)NC(=O)CNC(=O)[C@@H](NC(=O)[C@@H](NC(=O)[C@H](CO)NC(=O)[C@@H](NC(=O)[C@@H](NC(=O)[C@H](CC(=O)O)NC(=O)[C@H](CCC(N)=O)NC(=O)[C@H](C)NC(=O)[C@H](CCSC)NC=O)[C@@H](C)CC)[C@@H](C)CC)[C@@H](C)O)[C@@H](C)CC)C(C)C)C(=O)N[C@H](C(=O)N[C@@H](CC(=O)O)C(=O)N[C@H](C(=O)N[C@H](C(=O)N[C@@H](CC(N)=O)C(=O)N[C@@H](CCCCN)C(=O)N[C@@H](Cc1ccccc1)C(=O)N[C@H](C(=O)N[C@@H](CCCCN)C(=O)N[C@@H](CCCCN)C(=O)O)[C@@H](C)O)C(C)C)[C@@H](C)O)[C@@H](C)CC [δ-Lysin, reference compound] | yes
5 | AGWLLGDINLDALAALAKKIL-NH2 [TPW-1] | yes
6 | AGWLLGDINLKALAALAKKIL-NH2 [TPW-3] | yes
7 | AGWLLGKLALKALAALAKKLL-NH2 [TPW-2] | yes
8 | GILKFLESAKKWLEAFLAEIMNS [MG-1] | yes
9 | GLGKLLHAAKKLGKAWLGELLAA [MG-2] | yes
10 | KWKLLKKLEKAGAALKEGLLKAGPALALLGAAAALAK-NH2 [CE-2] | yes
